Assays:
[1] = tested on: d(AT)10 (DNA, duplex) ATATATATATATATATATAT; assay: fluorescent indicator displacement; conditions: Na+ (10 mM sodium phosphate); pH 7.0, 25 °C; DAPI displaced; DNA 20 μM bp; dye 0.5–50 μM
[2] = tested on: d(GC)10 (DNA, duplex) GCGCGCGCGCGCGCGCGCGC; assay: fluorescent indicator displacement; conditions: Na+ (10 mM sodium phosphate); pH 7.0, 25 °C; EtBr displaced; DNA 20 μM bp; dye 0.5–50 μM
[3] = tested on: dsDNA (DNA, duplex) CGCGGCGTACAGTGATCTACCATGCCCTGG/CCAGGGCATGGTAGATCACTGTACGCCGCG; assay: fluorescence titration, modified McGhee-von Hippel fit; conditions: Na+ (10 mM sodium phosphate), pH 7.0, dye 2 μM, DNA in bp, per base
[4] = tested on: dsDNA (DNA, duplex) CGCGGCGTACAGTGATCTACCATGCCCTGG/CCAGGGCATGGTAGATCACTGTACGCCGCG; assay: fluorescence enhancement; conditions: Na+ (10 mM sodium phosphate), pH 7.0, 25 °C, dye 2 μM, DNA 1 μM

Row | binding [1] | binding [2] | Structure (SMILES) | also measured
1 | yes | yes | CCN(CC)c1ccc(/C=C/c2cc[n+](C)c3ccccc23)cc1 | Kb ([3]; n = 2.8 bp per dye): 70000 M⁻¹
2 | yes |  | CCN(CC)c1ccc(/C=C/c2cc[n+](C)cc2)c(OCCCC[N+](C)(C)C)c1 | Kb ([3]; n = 4.0 bp per dye): 141000 M⁻¹
3 | yes | yes | CCN(CC)c1ccc(/C=C/c2sc3ccccc3[n+]2C)c(OCCCC[N+](C)(C)C)c1 | Kb ([3]; n = 2.5 bp per dye): 121000 M⁻¹
4 | yes | yes | CCN(CC)c1ccc(/C=C/c2sc3ccccc3[n+]2C)cc1 | Kb ([3]; n = 2.5 bp per dye): 35000 M⁻¹
5 |  |  | CCN(CC)c1ccc(/C=C/c2cc[n+](C)cc2)c(OCCC[N+](C)(C)C)c1 | binding ([4]; F/F0 54.8): yes
6 | yes | yes | CCN(CC)c1ccc(/C=C/c2cc[n+](C)c3ccccc23)c(OCCCC[N+](C)(C)C)c1 | Kb ([3]; n = 2.1 bp per dye): 245000 M⁻¹
7 |  |  | CCN(CC)c1ccc(/C=C/c2cc[n+](C)cc2)c(OCC[N+](C)(C)C)c1 | binding ([4]; F/F0 60.5): yes
8 | yes | yes | COc1ccc(/C=C/c2sc3ccccc3[n+]2C)c(OCCCC[N+](C)(C)C)c1 | binding ([4]; F/F0 10.9): yes
9 | yes |  | CCN(CC)c1ccc(/C=C/c2cc[n+](C)cc2)cc1 | Kb ([3]; n = 4.4 bp per dye): 10000 M⁻¹
